This note sets out measurements from patent publication US20250270222A1, “AP2 ASSOCIATED KINASE 1 INHIBITORS AND USES THEREOF” (Satellos Bioscience Inc., priority 2023, published 2025).

Common to all, as to assay type: biochemical
In experiment [1] the target is GAK (amino acids Q25-N335) (Homo sapiens (Human), UniProt O14976). Put plainly: GAK pSENs assay. As for the experimental part: (§1) The recombinant proteins were independently expressed in Esherichia coli BL21(DE3) cells cultured in Luria-Bertani (LB) medium until OD600 reached 0.6-0.8, then cooled to 15° C., and supplemented with 0.5 mM isopropyl 1-thio-D-galactopyranoside (IPTG) induce protein expression 16 h. Cells were harvested and resuspended in lysis buffer (50 mM HEPES pH 7.5, 500 mM NaCl, 5 mM imidazole, 5% glycerol, 0.5 mM Tris (2-carboxyethyl) phosphine (TCEP), cOmplete Protease Inhibitor Tablet (Roche)) and lysed by microfluidics high pressure homogenizer (UH-06, Union-Biotech). Proteins were purified using Ni-Affinity chromatography (His FF column, Bestchrom) and eluted stepwise in binding buffer with 20-300 mM imidazole. Removal of the hexahistidine tag was performed at 4° C. overnight using recombinant TEV protease and reacted with BirA to obtain the corresponding biotinylated-AAK1. BIKE or GAK proteins. Further separated in the reverse Strep column (Strep-Tactin® XT, IBA). The Biotin elution sample was collected containing untagged biotinylated protein was then purified by Ion-exchange chromatography (Mono Q 10/100 GL, Cytiva) and Size-exclusion chromatography (HiLoad 16/600 Superdex 200 pg, Cytiva). The pure protein was stored in a storage buffer 50 mM HEPES (pH 7.5), 300 mM NaCl, 5% glycerol at −80° C. Protein were characterized by SDS-PAGE. LC-MS and aSEC.
This example describes one illustrative method for determining the IC50 of the compounds of the present invention against GAK (amino acids Q25-N335).

In experiment [2] the target is AAK1 (amino acids T27-A365) (Homo sapiens (Human), UniProt Q2M2I8). In words: AAK1 pSENs assay. The following applies: ratio of AAK1 pSENs activity to GAK pSENs activity. In short, it runs like this:
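Untagged, biotinylated E. coli-expressed AAK1 at 20 nM preincubated with compound 15 min at 25° C in HEPES pH 7.5 buffer with 10 mM MgCl2 and 1 mM DTT. Reaction started with AQT0759 and ATP, added as 30 uM and 70 uM solutions in equal volume.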

Experiment [3] deals with BIKE (amino acids S38-E345) (K320A, K321A) (Homo sapiens (Human), UniProt Q9NSY1, K320A/K321A). Put plainly: BIKE pSENs assay. As for the experimental part:
as §1
BIKE protein was dissolved at 20 nM in 1× enzyme solution (50 mM HEPES pH7.5, 10 mM MgCl2, 1 mM DTT, 1% glycerol, 0.5 mM EGTA, 0.01% Briji35, 0.02% BSA) and 12.5 ul was incubated with 250 nl DMSO or 250 nl compound in DMSO at 25° C. for 15 min. The reaction was started by addition of 12.5 ul of 30 uM AQT0759 (Assayquant, CSKS-AQT0759B) and 40 uM ATP which were diluted in 1× substrate dilution buffer (50 mM HEPES pH7.5, 10 mM MgCl2. 1 mM DTT, 1% glycerol, 0.5 mM EGTA, 0.01% Briji35).

AAK1 (amino acids T27-A365), sequence (Q2M2I8 27-365): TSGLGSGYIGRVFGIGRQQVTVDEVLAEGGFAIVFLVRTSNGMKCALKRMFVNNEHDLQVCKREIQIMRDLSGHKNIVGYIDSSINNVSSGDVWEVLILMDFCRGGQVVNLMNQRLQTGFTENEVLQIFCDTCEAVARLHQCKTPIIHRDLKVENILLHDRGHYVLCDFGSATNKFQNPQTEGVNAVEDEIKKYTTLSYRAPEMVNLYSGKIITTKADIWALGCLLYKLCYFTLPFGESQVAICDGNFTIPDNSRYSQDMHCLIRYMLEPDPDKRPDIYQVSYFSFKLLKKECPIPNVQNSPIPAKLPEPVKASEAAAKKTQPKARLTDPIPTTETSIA
BIKE (amino acids S38-E345) (K320A, K321A), sequence (Q9NSY1 38-345 K320A/K321A): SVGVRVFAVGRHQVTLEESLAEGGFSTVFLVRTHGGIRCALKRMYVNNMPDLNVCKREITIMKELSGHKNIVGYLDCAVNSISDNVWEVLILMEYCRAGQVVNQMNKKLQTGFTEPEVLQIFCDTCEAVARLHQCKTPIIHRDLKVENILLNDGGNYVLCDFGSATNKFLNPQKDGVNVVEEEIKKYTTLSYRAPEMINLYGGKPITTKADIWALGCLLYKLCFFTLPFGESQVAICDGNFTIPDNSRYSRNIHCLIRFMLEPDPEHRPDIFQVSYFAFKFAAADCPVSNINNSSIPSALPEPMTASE
GAK (amino acids Q25-N335), sequence (O14976 25-335): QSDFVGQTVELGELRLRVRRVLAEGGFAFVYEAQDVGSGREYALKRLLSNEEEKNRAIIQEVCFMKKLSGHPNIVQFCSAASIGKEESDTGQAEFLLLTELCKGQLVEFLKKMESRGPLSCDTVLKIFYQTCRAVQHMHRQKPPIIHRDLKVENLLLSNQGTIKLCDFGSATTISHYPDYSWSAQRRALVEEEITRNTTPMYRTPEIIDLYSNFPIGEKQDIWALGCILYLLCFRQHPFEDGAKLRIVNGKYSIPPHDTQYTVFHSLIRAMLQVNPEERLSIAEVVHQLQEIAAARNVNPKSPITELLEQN

As usually defined, the IC50 is the concentration at which inhibition is half-maximal. Higher therefore signals weaker potency. As for `CC1(OC(=O)N2CCN(c3ccn4ncc(-c5cccnc5OC5CCC5)c4n3)CC2)COC1` [Compound I-17, (3-Methyloxetan-3-yl) 4-[3-[2-(cyclobutoxy)-3-pyridyl]pyrazolo[1,5-a]pyrimidin-5-yl]piperazine-1-carboxylate], the IC50 in experiment [1] and in experiment [3] was greater than 1500 nM in each case. For the same compound, the “AAK1:GAK pSENs Selectivity” value in experiment [2] is “B (B: 0.016-0.075)”.
Consider `CC1(OC(=O)N2CCN(c3ccn4ncc(-c5cccnc5OCC5COC5)c4n3)CC2)COC1` [Compound I-20], for which the “AAK1:GAK pSENs Selectivity” value in experiment [2] is listed as “D (D: 0.16-1.00)”. In addition, in experiment [3], the concentration for half-maximal inhibition (IC50) was greater than 1500 nM.
As for `CC(C)Oc1ncccc1-c1cnn2ccc(N3CCN(C(=O)O[C@@]4(C)CCNC4)CC3)nc12` [Compound I-21, [(3S)-3-Methylpyrrolidin-3-yl]4-[3-(2-isopropoxy-3-pyridyl)pyrazolo[1,5-a]pyrimidin-5-yl]piperazine-1-carboxylate], the “AAK1:GAK pSENs Selectivity” value in experiment [2] is “B (B: 0.016-0.075)”. This compound had a half-inhibitory concentration (IC50) in experiment [3] greater than 1500 nM.
For `O=C1C[C@H](OC(=O)N2CCN(c3ccn4ncc(-c5cccnc5NC5CCC5)c4n3)CC2)CN1` [Compound I-46, [(3S)-5-oxopyrrolidin-3-yl]4-[3-[2-(cyclobutylamino)-3-pyridyl]pyrazolo[1,5-a]pyrimidin-5-yl]piperazine-1-carboxylate], in that order: “E (E: >1.00)” and greater than 1500 nM.
`O=C1C[C@H](OC(=O)N2CCN(c3ccn4ncc(-c5cccnc5NC5CNC5)c4n3)CC2)CN1` [Compound I-49, (S)-5-oxopyrrolidin-3-yl 4-(3-(2-(azetidin-3-ylamino)pyridin-3-yl)pyrazolo[1,5a]pyrimidin-5-yl)piperazine-1-carboxylate] registered a half-maximal inhibitory concentration (IC50) in experiment [3] greater than 1500 nM.
Regarding `C[C@@]1(OC(=O)N[C@H]2CCN(c3ccn4ncc(-c5cccnc5OC5CC5)c4n3)C2)CCNC1` [Compound I-57, (R)-3-methylpyrrolidin-3-yl ((S)-1-(3-(2-cyclopropoxypyridin-3-yl)pyrazolo[1,5-a]pyrimidin-5-yl)pyrrolidin-3-yl)carbamate], the “AAK1:GAK pSENs Selectivity” value in experiment [2] is “C (C: 0.076-0.15)”. For the same compound, the IC50 in experiment [3] was greater than 1500 nM.
For `O=C(O[C@H]1CO[C@H]2OCC[C@H]21)N1CCN(c2ccn3ncc(-c4cnccn4)c3n2)CC1` [Compound I-66, [(3aS,4R,6aR)-2,3,3a, 4,5,6a-hexahydrofuro[2,3-b]furan-4-yl]-4-(3-pyrazin-2-ylpyrazolo[1,5-a]pyrimidin-5-yl)piperazine-1-carboxylate], in experiment [2], the “AAK1:GAK pSENs Selectivity” value is “D (D: 0.16-1.00)”. This compound also came in with a concentration for half-maximal inhibition (IC50) in experiment [3] greater than 1500 nM.
The compound `COC(=O)N1CC(Oc2ncccc2-c2cnn3ccc(N4CCN(C(=O)O[C@@H]5CC(=O)N(C)C5)CC4)nc23)C1` [Compound I-83, [(3R)-1-methyl-5-oxo-pyrrolidin-3-yl]4-[3-[2-(1-methoxycarbonylazetidin-3-yl)oxy-3-pyridyl]pyrazolo[1,5-a]pyrimidin-5-yl]piperazine-1-carboxylate] showed an IC50 in experiment [1] greater than 1500 nM. Besides, the “AAK1:GAK pSENs Selectivity” value in experiment [2] was “A (A: ≤0.015)”.
For `COC(=O)N1CC(Oc2ncccc2-c2cnn3ccc(N4CCN(C(=O)O[C@@H]5CC(=O)N(CCO)C5)CC4)nc23)C1` [Compound I-84, [(3R)-1-(2-hydroxyethyl)-5-oxo-pyrrolidin-3-yl]4-[3-[2-(1-methoxycarbonylazetidin-3-yl)oxy-3-pyridyl]pyrazolo[1,5-a]pyrimidin-5-yl]piperazine-1-carboxylate], in that order: greater than 1500 nM and “B (B: 0.016-0.075)”.
For `CN1C[C@@H](OC(=O)N2CCN(c3ccn4ncc(-c5cc(F)cnc5OC5CC5)c4n3)CC2)CC1=O` [Compound I-86] the same measures were greater than 1500 nM and “A (A: ≤0.015)”.
`COCCN1C[C@@H](OC(=O)N2CCN(c3ccn4ncc(-c5cc(F)cnc5OC5CC5)c4n3)CC2)CC1=O` [Compound I-89]: in experiment [1], the IC50 was greater than 1500 nM. For the same compound, in experiment [2], the “AAK1:GAK pSENs Selectivity” value is on record as “A (A: ≤0.015)”.
For `CN1C[C@@H](OC(=O)N2CCN(c3nc4c(-c5cccnc5OC5CC5)cnn4cc3F)CC2)CC1=O` [Compound I-109, [(3S)-1-methyl-5-oxo-pyrrolidin-3-yl]4-[3-[2-(cyclopropoxy)-3-pyridyl]-6-fluoro-pyrazolo[1,5-a]pyrimidin-5-yl]piperazine-1-carboxylate], in that order: greater than 1500 nM and “A (A: ≤0.015)”.
On to `[2H]C([2H])([2H])N1C[C@@H](OC(=O)N2CCN(c3ccn4ncc(-c5cccnc5OC5CC5)c4n3)CC2)CC1=O` [Compound I-113, [(3S)-5-oxo-1-(trideuteriomethyl)pyrrolidin-3-yl]4-[3-[2-(cyclopropoxy)-3-pyridyl]pyrazolo[1,5-a]pyrimidin-5-yl]piperazine-1-carboxylate], for which, in experiment [1], the 50% inhibitory concentration (IC50) was greater than 1500 nM. Further, the “AAK1:GAK pSENs Selectivity” value in experiment [2] is listed as “A (A: ≤0.015)”.
In experiment [1], `CC(C)N1C[C@@H](OC(=O)N2CCN(c3ccn4ncc(-c5cccnc5OC5CC5)c4n3)CC2)CC1=O` [Compound I-114, [(3S)-1-isopropyl-5-oxo-pyrrolidin-3-yl]-4-[3-[2-(cyclopropoxy)-3-pyridyl]pyrazolo[1,5-a]pyrimidin-5-yl]piperazine-1-carboxylate] yielded an IC50 greater than 1500 nM. The “AAK1:GAK pSENs Selectivity” value in experiment [2] was “B (B: 0.016-0.075)”.
For `COCCN1C[C@@H](OC(=O)N2CCN(c3ccn4ncc(-c5cccnc5OC5CC5)c4n3)CC2)CC1=O` [Compound I-115, [(3S)-1-(2-methoxyethyl)-5-oxo-pyrrolidin-3-yl]-4-[3-[2-(cyclopropoxy)-3pyridyl]pyrazolo[1,5-a]pyrimidin-5-yl]piperazine-1-carboxylate], in experiment [1], the IC50 was greater than 1500 nM. Also, the “AAK1:GAK pSENs Selectivity” value in experiment [2] is given as “A (A: ≤0.015)”.
Consider `[2H]C([2H])([2H])N1C[C@@H](OC(=O)N2CCN(c3nc4c(-c5cccnc5OC5CC5)cnn4cc3F)CC2)CC1=O` [Compound I-116, [(3S)-5-oxo-1-(trideuteriomethyl)pyrrolidin-3-yl]4-[3-[2-(cyclopropoxy)-3-pyridyl]-6-fluoro-pyrazolo[1,5-a]pyrimidin-5-yl]piperazine-1-carboxylate], for which the IC50 in experiment [1] is greater than 1500 nM. Also, in experiment [2], the “AAK1:GAK pSENs Selectivity” value is on record as “A (A: ≤0.015)”.
`[2H]C([2H])([2H])N1C[C@@H](OC(=O)N2CCN(c3nc4c(-c5cc(F)cnc5OC5CC5)cnn4cc3F)CC2)CC1=O` [Compound I-118, [(3S)-5-oxo-1-(trideuteriomethyl)pyrrolidin-3-yl]4-[3-[2-(cyclopropoxy)-5-fluoro-3-pyridyl]-6-fluoro-pyrazolo[1,5-a]pyrimidin-5-yl]piperazine-1-carboxylate] returned a half-maximal inhibitory concentration (IC50) in experiment [1] greater than 1500 nM. Moreover, in experiment [2], the “AAK1:GAK pSENs Selectivity” value was “A (A: ≤0.015)”.
Consider `CN1C[C@@H](OC(=O)N2CCN(c3ccn4ncc(-c5cccnc5OC5CCOC5)c4n3)CC2)CC1=O` (stereo partly drawn) [Compound I-119], for which the IC50 in experiment [1] was greater than 1500 nM. Further, in experiment [2], the “AAK1:GAK pSENs Selectivity” value was “B (B: 0.016-0.075)”.
Take `CN1C[C@@H](OC(=O)N2CCN(c3nc4c(-c5cccnc5OC5CCOC5)cnn4cc3F)CC2)CC1=O` (stereo partly drawn) [Compound I-120, [(3S)-1-methyl-5-oxo-pyrrolidin-3-yl]4-[6-fluoro-3-(2-tetrahydrofuran-3-yloxy-3-pyridyl)pyrazolo[1,5-a]pyrimidin-5-yl]piperazine-1-carboxylate]: in experiment [1], the IC50 is greater than 1500 nM. For the same compound, the “AAK1:GAK pSENs Selectivity” value in experiment [2] was “B (B: 0.016-0.075)”.
For `CN1C[C@@H](OC(=O)N2CCN(c3nc4c(-c5cccnc5OC5CCCC5)cnn4cc3F)CC2)CC1=O` [Compound I-121, [(3S)-1-methyl-5-oxo-pyrrolidin-3-yl]-4-[3-[2-(cyclopentoxy)-3-pyridyl]-6-fluoro-pyrazolo[1,5-a]pyrimidin-5-yl]piperazine-1-carboxylate], the IC50 in experiment [1] is greater than 1500 nM. Moreover, in experiment [2], the “AAK1:GAK pSENs Selectivity” value is given as “B (B: 0.016-0.075)”.
The compound `CN1C[C@@H](OC(=O)N2CCN(c3nc4c(-c5cccnc5OC5CCOCC5)cnn4cc3F)CC2)CC1=O` [Compound I-122] returned an IC50 in experiment [1] greater than 1500 nM. The “AAK1:GAK pSENs Selectivity” value in experiment [2] is listed as “A (A: ≤0.015)”.
